Source: US20120231482A1, “METHOD, KIT OR DIAGNOSTIC FOR THE DETECTION OF REAGENTS WHICH INDUCE ALTERED CONTRACTILITY” (THE JOHNS HOPKINS UNIVERSITY, priority 2009, published 2012)

How the values were obtained:
[1] = system: rat cardiac muscle; experiment: Force and [Ca2+]i measurements in cardiac trabeculae; assay type: cell-based; conditions: control compounds (NCA hydrolysis products, non-HNO-releasing analogue); data not shown
Experimental: Force and [Ca^2+]i Measurements in Cardiac Trabeculae.
Rat hearts were exposed via midsternotomy after the animals were anesthetized with intraperitoneal injection of pentobarbital (100 mg/kg), and were then rapidly excised and aorta cannulated. The hearts were perfused retrogradely (˜15 ml/min) with high K^+ Krebs-Henseleit (H-K) solution equilibrated with 95% O2 and 5% CO2. Trabeculae were quickly dissected from the right ventricles of the hearts and mounted between a force transducer and a motor arm. The muscles were superfused with K-H solution at a rate of ˜10 ml/min and stimulated at 0.5 Hz. Force was measured using a force transducer system (SI, Germany) and expressed in mN/mm^2. Sarcomere length was measured by laser diffraction. Fura-2 potassium salt was microinjected iontophoretically into one cell and allowed to spread throughout the whole muscle (via gap junctions). The epifluorescence of fura-2 was measured by exciting at 380 and 340 nm. The fluorescent light was collected at 510 nm by a photomultiplier tube (R1527, Hamamatsu). [Ca^2+]i was given by (after subtraction of the autofluorescence): [Ca^2+]i=K′d(R-Rmin)/(Rmax-R), where R is the observed ratio of fluorescence (340/380), K′d is the apparent dissociation constant, Rmax is the ratio of 340 nm/380 nm at saturating [Ca^2+], and Rmin is the ratio of 340 nm/380 nm at zero [Ca^2+]. The values of K′d, Rmax, and Rmin were determined by in vivo calibrations. Tetanization of the trabecula was achieved by addition of ryanodine (1.0 μmol/L) and by increasing the stimulus rate to 10 Hz briefly (˜3 sec) to obtain steady-state force-[Ca^2+] relations. Different levels of tetanized force will be obtained by increasing [Ca^2+] in the perfusate (up to 20-25 mmol/L). The data will be fitted with the Hill equation: F=Fmax[Ca^2+]in/(K1/2n+[Ca^2+]in), where Fmax is the maximal force. K1/2 is [Ca^2+]i at half Fmax, and n is the Hill coefficient.
1-nitrosocyclohexylacetate (NCA) is a new and mechanistically unique HNO donor that has been recently synthesized.

[2] = system: skinned trabeculae; experiment: Force-[Ca2+] relation in skinned trabeculae; assay type: cell-based, rat; conditions: skinned muscles; DTT (5 mM) for 10 min after NCA
Experimental: FIG. 2. […] (A) Steady-state force-[Ca^2+]i relationship in intact trabeculae before and after NCA (20 μmol/L). n=5. See text for details. (B) Force-[Ca^2+] relation in skinned trabeculae before and after NCA (n=6). […] The muscles were treated with DTT (5 mM) for 10 min after 1st force-[Ca^2+] was obtained in the presence of NCA alone, and a second force-[Ca^2+] relation was obtained in the presence of NCA+DTT. n=3. (D) For comparison, steady-state force-[Ca^2+]i relationship in intact trabeculae before and after AS (500 μmol/L). n=5.
To further test this hypothesis, steady-state force-[Ca^2+]i relations were obtained by tetanizing the muscles in the presence of ryanodine.

CC(C)(C)C(=O)OC1(N=O)CCCCC1 [1-nitrosocyclohexyl pivalate]
effects in cardiac muscles [1]: had no effects

O=C1CCCCC1 [cyclohexanone]
effects in cardiac muscles [1]: did not produce any appreciable effects

O[C@@H](CS)[C@@H](O)CS [DTT]
increases in myofilament Ca2+ sensitivity caused by HNO [2]: completely abolished
